Laboratory results published in patent US20190127775A1 (priority 2016, published 2019).

Legend:
[1] = tested on: methicillin resistant Staphylococcus aureus (MRSA; ATCC # 43300); assay: Whole cell anti-MRSA growth inhibition screen (OD590) of Un-Met and Pre-Met library plates; type: cell-based
Procedure: Next, a copy of the library in its un-metabolized form and a copy of the library in its pre-metabolized form were created. The buffer used for library metabolism was (4×=4 times the concentration of each component in the final solution): 4× KPMEN Buffer: 200 mM KH2PO4; 4 mM K2EDTA; 20 mM glucose-6-phosphate, disodium salt (G6P); 4 mM NADPH, tetrasodium salt; pH adjusted to 7.4 with 1 M KOH. To each well in 1 set of the Reconstituted Copy Plates was added 45 μL 1.1× KEPNM Buffer to give 1 set of unmetabolized (“Un-Met”) Library Plates. […] Both sets of plates were incubated at room temperature for 24 hours with gentle rocking to provide 1 set of Un-Met Library Plates and 1 set of Pre-Met Library Plates. […]
Antibacterial activity screening was performed using methicillin resistant Staphylococcus aureus (MRSA; ATCC # 43300). […] The optical density of each well was then read at 590 nm (0D590) using a TECAN SpectraFluor Plus microtiter plate reader (Artisan Technology Group, Champaign, Ill.). These plates were also read prior to addition of bacteria to identify wells with compounds with a high OD590, so that these well could be examined manually for turbidity post bacterial growth, since a high prior OD590 would interfere with post bacterial growth OD590 measurement. […]

[2] = un-metabolized parent; only active after metabolic conversion into sulfanilamide; cited from earlier work

COc1ccc2c(c1)[C@]13CCCC[C@@H]1[C@H](C2)N(C)CC3 [dextromethorphan]
anti-MRSA activity in the Pre-Met plates ([1]; Pre-Met plates (human liver microsomes), cutoff OD590 0.18, 24 hours 35° C.): not in the Pre-Met plates | anti-MRSA activity in the Un-Met plates ([1]; Un-Met plates, cutoff OD590 0.15, 24 hours 35° C.): had anti-MRSA activity

Nc1ccc(/N=N/c2ccc(S(N)(=O)=O)cc2)c(N)c1 [protosil, prontosil]
antibacterial activity in vitro [2]: inactive in vitro
